Patent US20230140983A1, “PYRIDAZINE DERIVATIVES FOR MODULATING NUCLEIC ACID SPLICING” (REMIX THERAPEUTICS INC., priority 2020, published 2023)
Where two headings read alike, the source gives them in different places.

Columns and labels:
Type in all cases: cell-based
HTT [1] = assay: Splicing assay (RT-qPCR on cell lysates) monitoring HTT splice variants: AJ and CJ mRNA; conditions: concentration having 50% response
Description: Example 69: Exemplary Splicing Assay for Monitoring Expression Levels of Splice Variants
(§1) To set up 10 uL RT-qPCR reactions, cell lysates were transferred to 384-well qPCR plates containing the master mix according to the table below. The plates were sealed, gently vortexed, and spun down before the run. The volumes were adjusted accordingly in some instances where the reaction was carried in 20 uL. The table below summarizes the components of the RT-qPCR reactions:
(§2) The RT-qPCR reaction was performed using a QuantStudio (ThermoFisher) under the following fast cycling conditions. All samples and standards were analyzed at least in duplicate. In some instances, bulk room temperature (RT) step of 5-10 minutes was completed for all plates before proceeding with qPCR. The table below summarizes the PCR cycle:
(§3) The data analysis was performed by first determining the ΔCt vs the housekeeper gene. This ΔCt was then normalized against the DMSO control (ΔΔCt) and converted to RQ (relative quantification) using the 2^(−ΔΔCt) equation. The RQ were then converted to a percentage response by arbitrarily setting an assay window of 3.5 ΔCt for HTT-CJ and an assay window of 9 ΔCt for HTT-AJ. […] The percentage response was then fitted to the 4 parametric logistic equation to evaluate the concentration dependence of compound treatment. The increase in AJ mRNA is reported as AC50 (compound concentration having 50% response in AJ increase) while the decrease in CJ mRNA levels is reported as IC50 (compound concentration having 50% response in CJ decrease).

HTT [2] = assay: Gene panel canonical junction qPCR assay, HTT CJ mRNA; conditions: Table 9, CJ mRNA decrease, read-out: HTT IC50 (decrease in CJ mRNA levels)
Description: as §1, §2, §3
(§4) Additional studies were carried out for a larger panel of genes using the protocol provided above. The junction between flanking upstream and downstream exons was used to design canonical junction qPCR assays. At least one of the forward primer, reverse primer or the CY5-labeled 5′ nuclease probe (with 3′ quencher such as ZEN/Iowa Black FQ) was designed to overlap with the exon junction to capture the CJ mRNA transcript. BLAST was used to confirm the specificity of the probeset and parameters such as melting temperature, GC content, amplicon size, and primer dimer formation are considered during their design. Data for the decrease in CJ mRNA levels for three exemplary genes (HTT, SMN2, and Target C) analyzed in this panel are reported as IC50 (compound concentration having 50% response in CJ decrease).

SMN2 = assay: Gene panel canonical junction qPCR assay, SMN2 CJ mRNA; conditions: Table 9, CJ mRNA decrease, read-out: SMN2 IC50 (decrease in CJ mRNA levels)
Description: as §1, §2, §3, §4

Target C = assay: Gene panel canonical junction qPCR assay, Target C CJ mRNA; conditions: Table 9, CJ mRNA decrease, read-out: Target C IC50 (decrease in CJ mRNA levels)
Description: as §1, §2, §3, §4

[3] = Table 7, decrease in CJ mRNA, read-out: HTT CJ AC50
[4] = Table 7, increase in AJ mRNA, read-out: HTT AJ AC50
[5] = Table 8, decrease in CJ mRNA, read-out: HTT CJ AC50
[6] = Table 8, increase in AJ mRNA, read-out: HTT AJ AC50

SMILES	AC50 (HTT [1]; [3]) [µM]	AC50 (HTT [1]; [4]) [µM]	AC50 (HTT [1]; [5]) [µM]	AC50 (HTT [1]; [6]) [µM]	IC50 (HTT [2]) [µM]	IC50 (SMN2) [µM]	IC50 (Target C) [µM]
CN(c1ccc(-c2ccc(-n3cccn3)c3nc[nH]c23)nn1)[C@@H]1C[C@H]2CC[C@@H](C1)N2 [Compound 170]	0.5 to 5	> 5	1 to 10	1 to 10	1 to 10	0.1 to 1	> 10
CN(c1ccc(-c2ccc(-c3ccn(C)c(=O)c3)c3scnc23)nn1)C1CC(C)(C)NC(C)(C)C1 [Compound 174]	–	–	1 to 10	1 to 10	1 to 10	0.1 to 1	> 10
CN(c1ccc(-c2ccc(-c3cnn(C)c3)c3scnc23)nn1)C1CC(C)(C)NC(C)(C)C1 [Compound 175, N-methyl-6-[7-(1-methylpyrazol-4-yl)-1,3-benzothiazol-4-yl]-N-(2,2,6,6-tetramethylpiperidin-4-yl)pyridazin-3-amine]	–	–	> 10	1 to 10	> 10	1 to 10	> 10
Cc1[nH]ncc1-c1ccc(-c2ccc(N(C)C3CC(C)(C)NC(C)(C)C3)nn2)c2ncsc12 [Compound 176]	–	–	> 10	1 to 10	> 10	> 10	> 10
COc1cc(-c2ccc(-c3ccc(N(C)C4CC(C)(C)NC(C)(C)C4)nn3)c3ncsc23)ccn1 [Compound 177]	–	–	> 10	> 10	> 10	1 to 10	> 10
CN(c1ccc(-c2ccc(-c3ccc(=O)n(C)c3)c3scnc23)nn1)C1CC(C)(C)NC(C)(C)C1 [Compound 178]	–	–	> 10	> 10	> 10	> 10	> 10
CN(c1ccc(-c2ccc(-c3cnc(=O)[nH]c3)c3scnc23)nn1)C1CC(C)(C)NC(C)(C)C1 [Compound 179]	–	–	0.1 to 1	0.1 to 1	0.1 to 1	0.1 to 1	0.1 to 1
CN(c1ccc(-c2ccc(-c3ccc(=O)[nH]c3)c3scnc23)nn1)C1CC(C)(C)NC(C)(C)C1 [Compound 180]	–	–	0.1 to 1	0.1 to 1	0.1 to 1	0.1 to 1	0.1 to 1
CC1(C)CC(Oc2ccc(-c3ccc(-c4cn[nH]c4)c4ncsc34)nn2)CC(C)(C)N1 [Compound 181]	> 5	> 5	> 10	> 10	> 10	< 0.1	> 10
CC1(C)CC(Oc2ccc(-c3ccc(-c4cn[nH]c4)c4ncsc34)nn2)CCN1 (centres unmarked) [Compound 182]	< 0.5	0.5 to 5	1 to 10	1 to 10	1 to 10	0.1 to 1	1 to 10
c1nc2c(-c3cn[nH]c3)ccc(-c3ccc(OC4CCNCC4)nn3)c2s1 [Compound 183]	> 5	> 5	0.1 to 1	0.1 to 1	0.1 to 1	0.1 to 1	0.1 to 1
c1nc2c(-c3cn[nH]c3)ccc(-c3ccc(O[C@@H]4C[C@H]5CC[C@@H](C4)N5)nn3)c2s1 [Compound 184]	< 0.5	0.5 to 5	0.1 to 1	< 0.1	0.1 to 1	< 0.1	0.1 to 1
c1nc2c(-c3cn[nH]c3)ccc(-c3ccc(N4CCNCC4)nn3)c2s1 [Compound 185]	> 5	> 5	> 10	1 to 10	> 10	0.1 to 1	> 10
CC1(C)CC(Nc2ccc(-c3ccc(-c4cn[nH]c4)c4ncsc34)nn2)CC(C)(C)N1 [Compound 186]	< 0.5	< 0.5	< 0.1	< 0.1	< 0.1	< 0.1	0.1 to 1
c1nc2c(-c3cn[nH]c3)ccc(-c3ccc(N4CC5(CCCNC5)C4)nn3)c2s1 [Compound 187, 7-(6-{2,6-diazaspiro [3.5]nonan-2-yl}pyridazin-3-yl)-4-(1H-pyrazol-4-yl)-1,3-benzothiazole]	> 5	> 5	> 10	> 10	> 10	1 to 10	> 10
c1nc2c(-c3cn[nH]c3)ccc(-c3ccc(N4CCC5(CC4)CNC5)nn3)c2s1 [Compound 188]	> 5	> 5	> 10	> 10	> 10	> 10	> 10
c1nc2c(-c3cn[nH]c3)ccc(-c3ccc(N4CCCC5(CNC5)C4)nn3)c2s1 [Compound 189]	–	–	> 10	> 10	> 10	> 10	> 10
c1nc2c(-c3cn[nH]c3)ccc(-c3ccc(N4CCC5(CCNCC5)C4)nn3)c2s1 [Compound 190]	–	–	> 10	> 10	> 10	> 10	> 10
c1nc2c(-c3cn[nH]c3)ccc(-c3ccc(N4CCC5(CCCNC5)C4)nn3)c2s1 (centres unmarked) [Compound 191]	–	–	> 10	> 10	> 10	1 to 10	> 10
CN(c1ccc(-c2ccc(-c3cnn(C)c(=O)c3)c3scnc23)nn1)C1CC(C)(C)NC(C)(C)C1 [Compound 211]	–	–	–	–	0.1 to 1	0.1 to 1	0.1 to 1
c1nc2c(-c3cn[nH]c3)ccc(-c3ccc(N4CCC45CCCNC5)nn3)c2s1 (centres unmarked) [Compound 276]	–	–	1 to 10	1 to 10	–	–	–
c1nc2c(-c3cn[nH]c3)ccc(-c3ccc(N4CCC45CCNC5)nn3)c2s1 (centres unmarked) [Compound 277]	–	–	> 10	> 10	–	–	–
c1cc(-c2ccc(N3CCCN3)c3cn[nH]c23)nnc1N[C@@H]1C[C@H]2CC[C@@H](C1)N2 [Compound 278]	–	–	< 0.1	0.1 to 1	–	–	–
CN(c1ccc(-c2ccc(-c3ccn(C)c(=O)c3)c3ncsc23)nn1)C1CC(C)(C)NC(C)(C)C1 [Compound 279]	–	–	1 to 10	1 to 10	–	–	–
COc1cc(-c2ccc(-c3ccc(N(C)C4CC(C)(C)NC(C)(C)C4)nn3)c3scnc23)ccn1 [Compound 280]	–	–	0.1 to 1	0.1 to 1	–	–	–
CN(c1ccc(-c2ccc(-c3ccc(=O)n(C)c3)c3ncsc23)nn1)C1CC(C)(C)NC(C)(C)C1 [Compound 281]	–	–	> 10	> 10	–	–	–
